Results on 26 compounds are retold here after publication PMC6270661, “Antileishmanial Lead Structures from Nature: Analysis of Structure-Activity Relationships of a Compound Library Derived from Caffeic Acid Bornyl Ester” (Molecules, 2014).

For series [1], the system named is L. major promastigotes. The series is described as follows: AlamarBlue assay, antileishmanial activity against L. major promastigotes. The note with it: Leishmania major, mean of two independent experiments. Type of series: cell-based, Leishmania major. As to the method:
(§1) Antileishmanial activities of the synthesized compounds were evaluated in L. major promastigotes as described before and in L. donovani promastigotes according to Hazra et al.. […] The antiprotozoal activities are presented in Table 1, Table 2 and Table 3 as inhibitory concentrations (IC50). […] Materials and methods for the biological assays have been described before by the authors. […] The protocol for the L. donovani quantitative colorimetric assay is outlined by Hazra et al.. The IC50 values are presented as mean values of two independent experiments against the parasite and macrophages.

In series [2] the test system is L. donovani promastigotes. Put plainly: Quantitative colorimetric assay against L. donovani promastigotes. To be noted: Leishmania donovani, mean of two independent experiments. Type of series: cell-based. The procedure:
as §1

A short description of series [3]: AlamarBlue cytotoxicity assay on J774.1 macrophages. Type of series: cell-based, murine. The note with it: mouse, J774.1 macrophage cell line, mean of two independent experiments.
Series [4] has as its system L. major amastigotes. Put plainly: L. major amastigote assay. To be noted: for IC50: Leishmania major; for Selectivity index SI: SI = IC50 for BMDM/IC50 for L. major (amastigotes). Type of series: cell-based, Leishmania major.
Series [5] in a line: Cytotoxicity against bone marrow derived macrophages (BMDM). To be noted: mouse. Type of series: cell-based, murine. An excerpt: The amastigote is the intracellular pathogenic form of the parasite in the vertebrate host and therefore the important target. […] With regard to antileishmanial activity cinnamic acid menthyl (20) and […] (19) show good activities combined with low cytotoxicity. […] Materials and methods for the biological assays have been described before by the authors. […] The protocol for the L. donovani quantitative colorimetric assay is outlined by Hazra et al.. The IC50 values are presented as mean values of two independent experiments against the parasite and macrophages.

Take `CC1(C)C2CCC1(C)C(OC(=O)C=Cc1ccc(Cl)cc1)C2` (stereo not drawn) [Compound 3, 4-Chlorocinnamic Acid (−)-bornyl Ester]: the melting point lay within 80 to 83 °C. In series [1], the IC50 worked out at 71.2 µM. Also, the IC50 in series [2] is over 100 µM. The same compound had an IC50 in series [3] of 49.5 µM.
Take `CC1(C)C2CCC1(C)C(OC(=O)C=Cc1ccc(Br)cc1)C2` (stereo not drawn) [Compound 4, 4-Bromocinnamic Acid (−)-bornyl Ester]: the melting point is 71 to 74 °C. Besides, the IC50 in series [1] was over 100 µM. The IC50 in series [2] is over 100 µM. Moreover, in series [3], 54.6 µM corresponded to half-maximal inhibition (IC50).
Compound `CN(C)c1ccc(C=CC(=O)OC2CC3CCC2(C)C3(C)C)cc1` (stereo not drawn) [Compound 5, 4-N-Dimethylaminocinnamic Acid (−)-bornyl Ester] yielded a melting point of 114 to 116 °C. The IC50 in series [1] was over 100 µM. Besides, the IC50 in series [2] was over 100 µM. Also, the IC50 in series [3] is over 100 µM.
The compound `CC1(C)C2CCC1(C)C(OC(=O)C=Cc1ccc(OCc3ccccc3)cc1)C2` (centres unmarked) [Compound 6] registered a melting point of 93 to 95 °C. The same compound registered a concentration for half-maximal inhibition (IC50) in series [1] of over 100 µM. This compound came in with an IC50 in series [2] of over 100 µM. In series [3], this compound showed an IC50 of over 100 µM.
As for `CC1(C)C2CCC1(C)C(OC(=O)C=Cc1ccc(O)c(O)c1)C2` (centres unmarked) [Compound 7, Caffeic Acid Isobornyl Ester], the IC50 in series [1] stood at 45.8 µM; in series [2], 34.8 µM; in series [3], 8.8 µM; in series [4] it was 47 µM; in series [5] it was 10.9 µM. Also, the “Selectivity index SI” value in series [4] worked out at 0.2.
With `COc1ccc(C=CC(=O)OC2CC3CCC2(C)C3(C)C)cc1O` (centres unmarked) [Compound 8, Isoferulic Acid Isobornyl Ester], the IC50 came out at 60.6 µM in series [1], 74.5 µM in series [2] and 44.3 µM in series [3].
Regarding `CC1(C)C2CCC1(C)C(OC(=O)C=Cc1ccc([N+](=O)[O-])cc1)C2` (centres unmarked) [Compound 9, 4-Nitrocinnamic Acid Isobornyl Ester], the melting point fell in the range of 121 to 123 °C. The IC50 in series [1] is over 100 µM. In series [2], this compound displayed an IC50 of over 100 µM. In series [3], this compound registered an IC50 of over 100 µM.
Take `COc1ccc(/C=C/C(=O)Oc2cc(C)ccc2C(C)C)cc1O` [Compound 11, Isoferulic Acid Thymyl Ester]: the IC50 in series [1] was determined as 59.8 µM; in series [2] it was 79.6 µM; in series [3], 45.6 µM.
Take `CC1CCC(C(C)C)C(OC(=O)/C=C/c2ccc(O)c(O)c2)C1` (centres unmarked) [Compound 12, Caffeic Acid Menthyl Ester]: the IC50 was found to be 59.5 µM in series [1], 79.4 µM in series [2] and 1.95 µM in series [3].
For `COc1ccc(/C=C/C(=O)OC2CC(C)CCC2C(C)C)cc1O` (centres unmarked) [Compound 13, Isoferulic Acid Menthyl Ester] the same measures were 54.2 µM, over 100 µM and 44.6 µM.
On to `CC1(C)C2CCC1(C)[C@H](OC(=O)/C=C/c1cccc(Cl)c1Cl)C2` (stereo partly drawn) [Compound 14, 2,3-Dichlorocinnamic acid (−)-bornyl ester], for which the melting point was in the range of 86 to 87 °C. Moreover, the 50% inhibitory concentration (IC50) in series [1] is 65.6 µM. This compound also gave an IC50 in series [2] of over 100 µM. The same compound registered an IC50 in series [3] of 58.9 µM.
Turning to `COc1ccc(/C=C/C(=O)O[C@@H]2CC3CCC2(C)C3(C)C)cc1` (stereo partly drawn) [Compound 16, 4-Methoxycinnamic Acid (−)-Bornyl Ester], the melting point is 87 to 90 °C. Moreover, the IC50 in series [1] was found to be 60.9 µM. Besides, the IC50 in series [2] is over 100 µM. In series [3], the midpoint of inhibition, the IC50, lay at 42.6 µM.
For `CC1(C)C2CCC1(C)[C@H](OC(=O)/C=C/c1ccc(Cl)cc1Cl)C2` (stereo partly drawn) [Compound 17, 2,4-Dichlorocinnamic Acid (−)-bornyl Ester] the same measures were 90 to 92 °C, 80.5 µM, over 100 µM and 60.6 µM.
As to `CC1(C)C2CCC1(C)[C@@H](OC(=O)/C=C/c1ccccc1)C2` (some centres unmarked) [Compound 18, Cinnamic Acid Isobornyl Ester], the IC50 in series [1] turned out to be 64.3 µM; in series [2] it was 51.2 µM; in series [3], 46 µM.
For the compound `Cc1ccc(C(C)C)c(OC(=O)/C=C/c2ccccc2)c1` [Compound 19, Cinnamic Acid Thymyl Ester], the IC50 in series [1] is 55 µM; in series [2] it was over 100 µM; in series [3], 44.8 µM; in series [4], 49.1 µM; in series [5] it was over 148 µM. Besides, the “Selectivity index SI” value in series [4] is over 3.0.
Take `CC1CCC(C(C)C)C(OC(=O)/C=C/c2ccccc2)C1` (centres unmarked) [Compound 20, Cinnamic Acid Menthyl Ester]: the IC50 is 53.1 µM in series [1]; 79.7 µM in series [2]; 44.8 µM in series [3]; 19.5 µM in series [4]; over 126 µM in series [5]. Moreover, the “Selectivity index SI” value in series [4] is over 6.4.
The compound `O=C(/C=C/c1ccccc1)OC12CC3CC(CC(C3)C1)C2` [Compound 21, Cinnamic Acid Adamantyl Ester] displayed a melting point of 66 °C. Moreover, the IC50 in series [1] turned out to be 60 µM. Further, the IC50 in series [2] was over 100 µM. In series [3], this compound gave an IC50 of 46.7 µM.
In the case of `O=C(/C=C/c1ccccc1)Oc1ccc2ccccc2c1` [Compound 22], the melting point fell in the range of 109 to 110 °C. For the same compound, the IC50 in series [1] is 67 µM. This compound showed an IC50 in series [2] of 28.7 µM. This compound also displayed an IC50 in series [3] of 44.5 µM.
Regarding `O=C(/C=C/c1ccccc1)OC1CCCCC1` [Compound 23, Cinnamic Acid Cyclohexyl Ester], the IC50 in series [1] is over 100 µM; in series [2], 23.4 µM; in series [3] it was over 100 µM.
For `CC(C)=CCCC(C)(OC(=O)C=Cc1ccccc1)C1CC=C(C)CC1` (centres unmarked) [Compound 24, Cinnamic Acid Bisabolyl Ester], the IC50 in series [1], in series [2] and in series [3] was over 100 µM in each case.
As to `C=CCc1ccc(OC(=O)/C=C/c2ccccc2)c(OC)c1` [Compound 25, Cinnamic Acid Eugenyl Ester], the values for the half-inhibitory concentration (IC50) in series [1], in series [2] and in series [3] were over 100 µM, 80.3 µM and 32.2 µM, respectively.
Turning to `CC(C)=CCC/C(C)=C/COC(=O)/C=C/c1ccccc1` [Compound 26, Cinnamic Acid Geranyl Ester], the results for the IC50 in series [1], in series [2] and in series [3] were over 100 µM, 41.9 µM and over 100 µM, respectively.
Regarding `CC(=O)Oc1ccc(/C=C/C(=O)O[C@@H]2CC3CCC2(C)C3(C)C)cc1OC(C)=O` (stereo partly drawn) [Compound 28, 3-(3,4-Bis(acetyloxy))phenyl Propenoic Acid (−)-Bornyl Ester], the IC50 in series [1] is 30.7 µM; in series [3], 2.1 µM.
In turn, `C[C@@H]1[C@H](O)[C@@H](C)/C=C/C=C/C=C/C=C/C=C/C=C/C=C/[C@H](O[C@@H]2O[C@H](C)[C@@H](O)[C@H](N)[C@@H]2O)C[C@@H]2O[C@](O)(C[C@@H](O)C[C@@H](O)[C@H](O)CC[C@@H](O)C[C@@H](O)CC(=O)O[C@H]1C)C[C@H](O)[C@H]2C(=O)O` [amphotericin B, reference compound] registered an IC50 in series [2] of 0.4 µM. This counts as sub-micromolar.
Turning to `CCCCCCCCCCCCCCCCOP(=O)([O-])OCC[N+](C)(C)C` [miltefosine, reference compound], the IC50 worked out at 36.2 µM in series [1], 56.5 µM in series [3], 33 µM in series [4] and 65.5 µM in series [5]. For the same compound, the “Selectivity index SI” value in series [4] worked out at 2.0.
With `N=C(N)c1ccc(OCCCCCOc2ccc(C(=N)N)cc2)cc1` [pentamidine, reference compound], the IC50 in series [1] amounted to 82 µM; in series [3], 38.6 µM.
